The values below come from publication PMC7818652 (ACS Catalysis, 2020).

Experiment in all cases: steady-state kinetics, DCIP reduction (spectrophotometric)
What all share (type): biochemical, Neurospora crassa
Common to all, as to conditions: 2,6-dichloroindophenol as saturating co-substrate; pH 6.0 citrate-phosphate; 30 °C

Assay [1] deals with T1, CDHBBA.
T1 construct: gene cdhIIA; single fused chain: CYT and linker of NcCDHIIB + DH and CBM1 of NcCDHIIA; expressed in Pichia pastoris KM71H; with Cellobiose dehydrogenase
The source says:
steady-state kinetics, DCIP reduction (spectrophotometric) on CDHBBA

Assay [2] relates to T2, CDHAAB.
T2 construct: gene cdhIIB; single fused chain: CYT and linker of NcCDHIIA + DH of NcCDHIIB, no CBM1; expressed in Pichia pastoris KM71H; with Cellobiose dehydrogenase
The source says: steady-state kinetics, DCIP reduction (spectrophotometric) on CDHAAB

The subject of assay [3] is T3, CDHABB.
T3 construct: gene cdhIIB; single fused chain: CYT of NcCDHIIA + linker and DH of NcCDHIIB, no CBM1; expressed in Pichia pastoris KM71H; with Cellobiose dehydrogenase
The source says:
steady-state kinetics, DCIP reduction (spectrophotometric) on CDHABB

In assay [4] the test system is T4, CDHBAA.
T4 construct: gene cdhIIA; single fused chain: CYT of NcCDHIIB + linker, DH and CBM1 of NcCDHIIA; expressed in Pichia pastoris KM71H; with Cellobiose dehydrogenase
The source says:
steady-state kinetics, DCIP reduction (spectrophotometric) on CDHBAA

The Km is the concentration of substrate that gives half-maximal velocity. Consider `OC[C@H]1O[C@@H](O[C@H]2[C@H](O)[C@@H](O)C(O)O[C@@H]2CO)[C@H](O)[C@@H](O)[C@@H]1O` (stereo partly shown) [cellobiose], for which the Km in assay [1] amounted to 75 ± 5 µM; in assay [2], 46 ± 3 µM; in assay [3], 26 ± 3 µM; in assay [4], 57 ± 6 µM.
